Tests used:
ICR mice = assay: Pulmonary toxicity (pulmonary fibrosis) in mice, intratracheal instillation; type: in vivo; conditions: 16 μg/50 μl/mouse intratracheally, sacrificed 4 weeks after instillation; for Grade: total score of pulmonary fibrosis/total number of samples: score 0-6 points
Description: Male 15 weeks old ICR mice were used. Sixteen μg/50 μl/mouse of each test sample was intratracheally instilled. The mice were sacrificed 4 weeks after instillation to examine the incidence and grade of pulmonary fibrosis. The evaluation was made by comparing the number of administered mice suffering from pulmonary fibrosis and the grade of the disease.
(§1) In Tables 4A and 4B, the grade was numerically rated as follows:
(§2) 1 point: Accumulation of exudate in pulmonary alveoli and fibrosis-like change in alveolar septum.
(§3) 2 points: Fibrosis in several areas.
(§4) 4 points: Scattered fibrosis.
(§5) 6 points: Fibrosis in more than two-thirds of the total area.

ICR strain mice = assay: Pulmonary toxicity (pulmonary fibrosis) in mice, intraperitoneal injection; type: in vivo; conditions: 5 mg/kg i.p. once a day for 10 days; for Grade of pulmonary fibrosis, % / Incidence of pulmonary fibrosis, % / Incidence: number of mice suffering from pulmonary fibrosis / Grade: total score of pulmonary fibrosis/total number of test animal: autopsy after 5 weeks; for Incidence: number of mice suffering from pulmonary fibrosis: affected/total mice; for Grade: total score of pulmonary fibrosis/total number of test animal: score 0-6 points; for Grade of pulmonary fibrosis, Ratio / Incidence of pulmonary fibrosis, Ratio: reference of the ratio not stated
Description: (3) Pulmonary toxicity (pulmonary fibrosis) in mice.
ICR strain mice (male; 15 weeks old; 9 mice per group) were used. Each mouse was administered with a daily dose of 5 mg/kg of the test sample by intraperitoneal injection, once a day, for 10 consecutive days. After completion of the predetermined administration, the mice were kept for 5 weeks under observation, then slaughtered, and autopsied to examine the incidence and grade of pulmonary fibrosis. The evaluation was made by comparing the number of administered mice suffering from pulmonary fibrosis and the grade of the disease.
as §1, §2, §3, §4, §5

Hela S3 cells = assay: Growth inhibitory activity against Hela S3 cells; type: cell-based; conditions: Cu-free form; Hela S3, 3 days incubation with compound
Description: The percentage growth inhibition was calculated using the equation: […] wherein A is the ultimate number of cells on the third day from the addition of a test sample, B is the ultimate number of cells in the control (without the addition of test sample), and C is the number of cells on the day of addition of the test sample.

Bacillus subtilis = assay: Antimicrobial activity, agar plate-cylinder method; type: cell-based; conditions: Cu-free form; bleomycin A2 (Cu-free form) standard assumed 1,000 mcg/mg
Description: (1) Antimicrobial activity against Mycobacterium smegmatis ATCC 697 and Bacillus subtilis.
(§6) The activity was assayed against the above test microorganisms by the method of agar plate-cylinder, assuming the potency of bleomycin A2 (Cu-free form), used as standard, to be 1,000 mcg/mg.

[1] = tested on: Mycobacterium smegmatis ATCC 607; assay: Antimicrobial activity, agar plate-cylinder method; type: cell-based; conditions: Cu-free form; bleomycin A2 (Cu-free form) standard assumed 1,000 mcg/mg
Description: as §6

Row | Structure (SMILES) | Grade of pulmonary fibrosis, % (ICR mice) | Incidence of pulmonary fibrosis, % (ICR mice) | Incidence: number of mice with pulmonary fibrosis/number of mice (ICR mice) | Grade: total score of pulmonary fibrosis/total number of samples (ICR mice) | Grade of pulmonary fibrosis, % (ICR strain mice) | Incidence of pulmonary fibrosis, % (ICR strain mice) | Incidence: number of mice suffering from pulmonary fibrosis (ICR strain mice) | Grade: total score of pulmonary fibrosis/total number of test animal (ICR strain mice) | Grade of pulmonary fibrosis, Ratio (ICR strain mice) | Incidence of pulmonary fibrosis, Ratio (ICR strain mice) | 50% growth inhibition concentration (ID50) of Cu--free compound against cultured Hela cell (Hela S3 cells) | Antimicrobial potency of Cu--free compound, against Bacillus subtilis (Bacillus subtilis) | Antimicrobial potency of Cu--free compound, against Mycobacterium smegmatis ATCC 607 [1]
1 | COc1ccc(CNCCCN(C)CCCNC(=O)c2csc(-c3csc(CCNC(=O)C(NC(=O)C(C)C(O)C(C)NC(=O)C(NC(=O)c4nc(C(CC(N)=O)NCC(N)C(N)=O)nc(N)c4C)C(OC4OC(CO)C(O)C(O)C4OC4OC(CO)C(O)C(OC(N)=O)C4O)c4cnc[nH]4)C(C)O)n3)n2)c(OC)c1 (centres unmarked) [compound 13, 3-{N--Methyl-N--[3'-(o,p-dimethoxybenzylamino)propyl]amino}propylaminoBLM] | 15% | 22% | 2/9 | 4/27 | 11% | 33% | 2/6 | 2/18 | 0.13 | 0.53 | 1.30 µg/mL | 5312 mcg potency per mg | 5351 mcg potency per mg
2 | Cc1c(N)nc(C(CC(N)=O)NCC(N)C(N)=O)nc1C(=O)NC(C(=O)NC(C)C(O)C(C)C(=O)NC(C(=O)NCCc1nc(-c2nc(C(=O)NCCCN(C)CCCNCc3ccc(Cl)c(Cl)c3)cs2)cs1)C(C)O)C(OC1OC(CO)C(O)C(O)C1OC1OC(CO)C(O)C(OC(N)=O)C1O)c1cnc[nH]1 (centres unmarked) [compound 7, 3-{N--Methyl-N--[3'-(m,p-dichlorobenzylamino)propyl]amino}propylaminoBLM] | 13% | 30% | 3/10 | 4/30 | 4% | 11% | 1/9 | 1/27 | 0.05 | 0.18 | 0.82 µg/mL | 4263 mcg potency per mg | 10601 mcg potency per mg
3 | Cc1c(N)nc(C(CC(N)=O)NCC(N)C(N)=O)nc1C(=O)NC(C(=O)NC(C)C(O)C(C)C(=O)NC(C(=O)NCCc1nc(-c2nc(C(=O)NCCCN(C)CCCN(Cc3cc(OCc4ccccc4)c(OCc4ccccc4)c(OCc4ccccc4)c3)Cc3cc(OCc4ccccc4)c(OCc4ccccc4)c(OCc4ccccc4)c3)cs2)cs1)C(C)O)C(OC1OC(CO)C(O)C(O)C1OC1OC(CO)C(O)C(OC(N)=O)C1O)c1cnc[nH]1 (centres unmarked) [compound 53, 3-{N--Methyl-N--[3'-(bis(3",4",5"-tribenzyloxybenzyl)amino)propyl]amino}propylaminoBLM] |  |  |  |  | 0% | 0% | 0/9 | 0/27 | 0.00 | 0.00 | 0.062 µg/mL | 26 mcg potency per mg | 11 mcg potency per mg
4 | Cc1c(N)nc(C(CC(N)=O)NCC(N)C(N)=O)nc1C(=O)NC(C(=O)NC(C)C(O)C(C)C(=O)NC(C(=O)NCCc1nc(-c2nc(C(=O)NCCCN3CCN(CCCNCc4ccc(Cl)cc4)CC3)cs2)cs1)C(C)O)C(OC1OC(CO)C(O)C(O)C1OC1OC(CO)C(O)C(OC(N)=O)C1O)c1cnc[nH]1 (stereo not drawn) [compound 44, 3-[4-(3-p-Chlorobenzylaminopropyl)piperazin-l-yl]propylaminoBLM] |  |  |  |  | 0% | 0% | 0/9 | 0/27 | 0.00 | 0.00 | 0.31 µg/mL | 6080 mcg potency per mg | 11350 mcg potency per mg
5 | Cc1c(N)nc(C(CC(N)=O)NCC(N)C(N)=O)nc1C(=O)NC(C(=O)NC(C)C(O)C(C)C(=O)NC(C(=O)NCCc1nc(-c2nc(C(=O)NCCCN(C)CCCNCC3CCCCCCCCCCCC3)cs2)cs1)C(C)O)C(OC1OC(CO)C(O)C(O)C1OC1OC(CO)C(O)C(OC(N)=O)C1O)c1cnc[nH]1 (centres unmarked) [compound 47, 3-{N--Methyl-N--[3'-(cyclotridecanylmethylamino)propyl]amino}propylaminoBLM] |  |  |  |  | 0% | 0% | 0/9 | 0/27 | 0.00 | 0.00 | 0.18 µg/mL | 1760 mcg potency per mg | 3915 mcg potency per mg
6 | Cc1c(N)nc(C(CC(N)=O)NCC(N)C(N)=O)nc1C(=O)NC(C(=O)NC(C)C(O)C(C)C(=O)NC(C(=O)NCCc1nc(-c2nc(C(=O)NCCCN(C)CCCNCc3ccc(C#N)cc3)cs2)cs1)C(C)O)C(OC1OC(CO)C(O)C(O)C1OC1OC(CO)C(O)C(OC(N)=O)C1O)c1cnc[nH]1 (centres unmarked) [compound 18, 3-{N--Methyl-N--[3'-(p-cyanobenzylamino)propyl]amino}propylaminoBLM] |  |  |  |  | 0% | 0% | 0/9 | 0/27 | 0.00 | 0.00 | 1.10 µg/mL | 4347 mcg potency per mg | 3163 mcg potency per mg
7 | Cc1c(N)nc(C(CC(N)=O)NCC(N)C(N)=O)nc1C(=O)NC(C(=O)NC(C)C(O)C(C)C(=O)NC(C(=O)NCCc1nc(-c2nc(C(=O)NCCCN(C)CCCN(Cc3ccc(OCC4CCCCCCC4)cc3)Cc3ccc(OCC4CCCCCCC4)cc3)cs2)cs1)C(C)O)C(OC1OC(CO)C(O)C(O)C1OC1OC(CO)C(O)C(OC(N)=O)C1O)c1cnc[nH]1 (centres unmarked) [compound 52, 3-{N--Methyl-N--[3'-(bis(p-cyclooctylmethyloxybenzyl)amino)propyl)amino}propylaminoBLM] |  |  |  |  | 0% | 0% | 0/9 | 0/27 | 0.00 | 0.00 | 0.13 µg/mL | 49 mcg potency per mg | 268 mcg potency per mg
8 | COc1ccc(COc2ccc(CN(CCCN(C)CCCNC(=O)c3csc(-c4csc(CCNC(=O)C(NC(=O)C(C)C(O)C(C)NC(=O)C(NC(=O)c5nc(C(CC(N)=O)NCC(N)C(N)=O)nc(N)c5C)C(OC5OC(CO)C(O)C(O)C5OC5OC(CO)C(O)C(OC(N)=O)C5O)c5cnc[nH]5)C(C)O)n4)n3)Cc3ccc(OCc4ccc(OC)cc4)c(OCc4ccc(OC)cc4)c3)cc2OCc2ccc(OC)cc2)cc1 (centres unmarked) [compound 50] |  |  |  |  | 0% | 0% | 0/9 | 0/27 | 0.00 | 0.00 | 0.70 µg/mL | 35 mcg potency per mg | 145 mcg potency per mg
